Key:
Type in all cases: cell-based, human
786-0 = system: 786-0
In short: (§1)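 Screening via NCI-60, five log concentrations from 0.01 to 100 μM; TGI compared by COMPARE with reference tubulin agents.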

A498 = system: A498
In short: as §1

ACHN = system: ACHN
In short: (§2)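 NCI-60 panel, 5-dose format (100 μM → 0.01 μM, tenfold steps). TGI values used for COMPARE vs. known tubulin inhibitors.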

BT-549 = system: BT-549
In short: as §1

CAKI-1 = system: CAKI-1
In short: as §1

HCT-116 = system: HCT-116
In short: as §1

HL-60(TB) = system: HL-60(TB)
In short: as §1

HOP-92 = system: HOP-92
In short: as §1

HT29 = system: HT29
In short: as §1

K-562 = system: K-562
In short: as §1

LOX IMVI = system: LOX IMVI
In short: as §2

MALME-3M = system: MALME-3M
In short: as §1

MCF7 = system: MCF7
In short: as §1

MOLT-4 = system: MOLT-4
In short: as §1

NCI 60 cell lines = system: NCI 60 cell lines
In short: as §1

NCI-H23 = system: NCI-H23
In short: as §1

NCI-H460 = system: NCI-H460
In short: as §1

NCI/ADR-RES = system: NCI/ADR-RES
In short: as §1

OVCAR-8 = system: OVCAR-8
In short: as §1

PC-3 = system: PC-3
In short: as §2

SK-MEL-28 = system: SK-MEL-28
In short: as §1

SK-MEL-5 = system: SK-MEL-5
In short: as §1

SN12C = system: SN12C
In short: as §1

SNB-19 = system: SNB-19
In short: as §2

SR = system: SR
In short: as §1

T-47D = system: T-47D
In short: as §1

TK-10 = system: TK-10
In short: as §2

## COc1cc(C)c(-c2ccc(=O)c(OC)cc2C)c(OC)c1OC (single isomer, unassigned) [(aR)-iso-6]
786-0
  Log10GI50: > -4.00 Molar
  Log10LC50: > -4.00 Molar
  Log10TGI: > -4.00 Molar
A498
  Log10GI50: > -4.00 Molar
  Log10LC50: > -4.00 Molar
  Log10TGI: > -4.00 Molar
ACHN
  Log10GI50: > -4.00 Molar
  Log10LC50: > -4.00 Molar
  Log10TGI: > -4.00 Molar
BT-549
  Log10GI50: > -4.00 Molar
  Log10LC50: > -4.00 Molar
  Log10TGI: > -4.00 Molar
CAKI-1
  Log10GI50: > -4.00 Molar
  Log10LC50: > -4.00 Molar
  Log10TGI: > -4.00 Molar
HCT-116
  Log10GI50: > -4.00 Molar
  Log10LC50: > -4.00 Molar
  Log10TGI: > -4.00 Molar
HL-60(TB)
  Log10GI50: > -4.00 Molar
  Log10LC50: > -4.00 Molar
  Log10TGI: > -4.00 Molar
HOP-92
  Log10GI50: > -4.00 Molar
  Log10LC50: > -4.00 Molar
  Log10TGI: > -4.00 Molar
HT29
  Log10GI50: > -4.00 Molar
  Log10LC50: > -4.00 Molar
  Log10TGI: > -4.00 Molar
K-562
  Log10GI50: > -4.00 Molar
  Log10LC50: > -4.00 Molar
  Log10TGI: > -4.00 Molar
LOX IMVI
  Log10GI50: > -4.00 Molar
  Log10LC50: > -4.00 Molar
  Log10TGI: > -4.00 Molar
MALME-3M
  Log10GI50: > -4.00 Molar
  Log10LC50: > -4.00 Molar
  Log10TGI: > -4.00 Molar
MCF7
  Log10GI50: > -4.00 Molar
  Log10LC50: > -4.00 Molar
  Log10TGI: > -4.00 Molar
MOLT-4
  Log10GI50: > -4.00 Molar
  Log10LC50: > -4.00 Molar
  Log10TGI: > -4.00 Molar
NCI 60 cell lines; 100 μM
  cytotoxicity at the highest concentration tested: not cytotoxic
NCI 60 cell lines; NCI-60 cell line selectivity
  Log10 Range at TGI: 0
NCI 60 cell lines; NCI-60 mean
  GI50: > 100 µM
NCI 60 cell lines; NCI-60 mean total growth inhibition
  Mean TGI: > 100 µM
NCI 60 cell lines; mean graph
  Delta Log10LC50: 0
  Delta Log10TGI: 0
NCI 60 cell lines; mean graph midpoint
  _MID Log10GI50: -4.01 Molar
  _MID Log10LC50: -4.0 Molar
  _MID Log10TGI: -4.0 Molar
NCI-H23
  Log10GI50: > -4.00 Molar
  Log10LC50: > -4.00 Molar
  Log10TGI: > -4.00 Molar
NCI-H460
  Log10GI50: > -4.00 Molar
  Log10LC50: > -4.00 Molar
  Log10TGI: > -4.00 Molar
NCI/ADR-RES
  Log10GI50: > -4.00 Molar
  Log10LC50: > -4.00 Molar
  Log10TGI: > -4.00 Molar
OVCAR-8
  Log10GI50: > -4.00 Molar
  Log10LC50: > -4.00 Molar
  Log10TGI: > -4.00 Molar
PC-3
  Log10GI50: > -4.00 Molar
  Log10LC50: > -4.00 Molar
  Log10TGI: > -4.00 Molar
SK-MEL-28
  Log10GI50: > -4.00 Molar
  Log10LC50: > -4.00 Molar
  Log10TGI: > -4.00 Molar
SK-MEL-5
  Log10GI50: > -4.00 Molar
  Log10LC50: > -4.00 Molar
  Log10TGI: > -4.00 Molar
SN12C
  Log10GI50: > -4.00 Molar
  Log10LC50: > -4.00 Molar
  Log10TGI: > -4.00 Molar
SNB-19
  Log10GI50: > -4.00 Molar
  Log10LC50: > -4.00 Molar
  Log10TGI: > -4.00 Molar
SR
  Log10GI50: > -4.00 Molar
  Log10LC50: > -4.00 Molar
  Log10TGI: > -4.00 Molar
T-47D
  Log10GI50: > -4.00 Molar
  Log10LC50: > -4.00 Molar
  Log10TGI: > -4.00 Molar
TK-10
  Log10GI50: > -4.00 Molar
  Log10LC50: > -4.00 Molar
  Log10TGI: > -4.00 Molar

Reference: article PMC12150326 (The Journal of Organic Chemistry, 2025)
